Drawing on US9593110B2, “Neprilysin inhibitors” (Theravence Biopharma R&D IP, LLC, priority 2014, dated 2017), this text covers Ki, bioavailability and pKi for eleven compounds.

The target in data set [1] is human NEP (Homo sapiens (Human), UniProt P08473). Description: In vitro enzyme inhibition assay at human NEP. The settings on record: recombinant human NEP, fluorogenic peptide substrate, 37° C.; for Ki: pKi.
Experimental: The inhibitory activities of compounds at human and rat neprilysin (EC 3.4.24.11; NEP) and human angiotensin converting enzyme (ACE) were determined using in vitro assays as described below.
The assays were performed in 384-well white opaque plates at 37° C. using the fluorogenic peptide substrates at a concentration of 10 μM in Assay Buffer (NEP: 50 mM HEPES, pH 7.5, 100 mM NaCl, 0.01% polyethylene glycol sorbitan monolaurate (Tween-20), 10 μM ZnSO4; ACE: 50 mM HEPES, pH 7.5, 100 mM NaCl, 0.01% Tween-20, 1 μM ZnSO4).
Test compounds were assayed over the range of concentrations from 10 μM to 20 pM. Test compounds were added to the enzymes and incubated for 30 minute at 37° C. prior to initiating the reaction by the addition of substrate.
Plates were read on a fluorometer with excitation and emission wavelengths set to 320 nm and 405 nm, respectively Inhibition constants were obtained by nonlinear regression of the data using the equation (GraphPad Software, Inc., San Diego, Calif.): v=v0/[1+(I/K′)] where v is the reaction rate, v0 is the uninhibited reaction rate, I is the inhibitor concentration and K′ is the apparent inhibition constant.
Data set [2] is described as follows: Rat PO cassette assay (oral bioavailability). The format is in vivo, Sprague-Dawley rats. The settings on record: male, Sprague-Dawley, plasma, single oral gavage vs intravenous dose, 0.5 mg/kg. An excerpt: Oral bioavailability, or % F, is a measure of the percentage of a drug in an oral dose that actually reaches the systemic circulation. Compound losses can occur due to incomplete formulation dissolution, incomplete absorption due to compound insolubility or instability along the GI, or metabolism in the gut or across the gut wall. The fraction of the dose which reaches the hepatic portal vein must also then pass through the liver before reaching the systemic circulation. Compound metabolism, or “first-pass extraction,” can occur during this initial passage through the liver, and this is an additional potential source of compound loss. Oral bioavailability is calculated as the dose-normalized ratio of drug exposure after an oral dose to that after an intravenous dose, wherein the entire dose is delivered directly to the systemic circulation.
Each cassette study begins with 10 mM DMSO stock solutions of up to 5 different compounds. Typically, compounds are selected such no two compounds dosed in the same cassette have a molecular weight within 5 Da of each other. This simplifies subsequent bioanalysis. Appropriate volumes of each DMSO stock are added into a volume of vehicle (5% sodium bicarbonate, 5% dextrose in H2O) such that the final concentration of each compound is 0.25 mg/mL. Intravenous dosing solutions are sterile-filtered (0.2 μm) prior to dosing.
Pre-cannulated male Sprague-Dawley rats (3 per cassette per route) between 8 and 10 weeks of age were obtained from Harlan Laboratories (Indianapolis, Ind.). Rats received either a single oral gavage or a single intravenous (via lateral tail vein) dose (2 mL/kg) of the dosing solution. The final dose was 0.5 mg/kg. Serial blood samples were harvested via jugular vein cannula at 3 minutes, 15 minutes, 30 minutes, 1 hours, 2 hours, 4 hours, 6 hours, and 24 hours post-dose. Sampling was performed either manually or using automated blood samplers. Samples were collected into microtainer tubes containing EDTA as the anticoagulant and are processed to plasma by refrigerated centrifugation.
Plasma samples were extracted with 3 volumes of MeCN containing a suitable internal standard. Extracts were reconstituted into 3 volumes of water containing 1% formic acid, and analyzed via HPLC-coupled MS/MS. Plasma concentration-time data were analyzed using the Phoenix software (Pharsight Corp., St. Louis, Mo.) to calculate pharmacokinetic parameters.
Compounds of the invention of particular interest were those having a % F>10%, when tested in this assay.

human NEP, sequence (P08473 52-750): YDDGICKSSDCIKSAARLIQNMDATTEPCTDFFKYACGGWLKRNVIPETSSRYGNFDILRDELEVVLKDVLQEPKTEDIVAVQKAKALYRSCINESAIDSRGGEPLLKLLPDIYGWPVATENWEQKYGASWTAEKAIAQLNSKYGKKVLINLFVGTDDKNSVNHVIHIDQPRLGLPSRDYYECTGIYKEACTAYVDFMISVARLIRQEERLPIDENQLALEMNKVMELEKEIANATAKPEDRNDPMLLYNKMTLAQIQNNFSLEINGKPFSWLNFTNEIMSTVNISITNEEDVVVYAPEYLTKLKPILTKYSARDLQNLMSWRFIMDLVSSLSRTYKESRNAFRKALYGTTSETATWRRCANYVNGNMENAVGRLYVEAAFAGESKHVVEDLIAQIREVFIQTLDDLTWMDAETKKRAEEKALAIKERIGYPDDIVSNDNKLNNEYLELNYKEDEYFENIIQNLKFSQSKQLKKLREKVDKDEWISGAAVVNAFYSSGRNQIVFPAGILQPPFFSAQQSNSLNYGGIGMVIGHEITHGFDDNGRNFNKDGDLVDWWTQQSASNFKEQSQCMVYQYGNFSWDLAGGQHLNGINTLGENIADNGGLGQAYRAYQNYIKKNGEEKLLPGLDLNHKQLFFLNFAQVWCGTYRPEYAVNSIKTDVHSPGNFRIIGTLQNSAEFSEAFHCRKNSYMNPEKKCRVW

Take `Cc1cc(C(=O)NC(Cc2ccc(-c3cc(Cl)ccc3F)cc2)C[C@@H](CC#N)C(=O)O)sn1` (single isomer, unassigned) [Example 52-1]: in data set [1], the Ki (in general, the dissociation constant of the complex between target and ligand, obtained from inhibition or displacement) was not above 1 nM. Further, the bioavailability – broadly, dose-corrected exposure relative to a reference, in per cent – in data set [2] is more than 10%.
The corresponding values for `CCc1cc(C(=O)N[C@H](Cc2ccc(-c3cc(Cl)ccc3F)cc2)C[C@@H](COC)C(=O)O)on1` [Example 1, (2S,4S)-5-(5′-Chloro-2′-fluorobiphenyl-4-yl)-4-[(3-ethylisoxazole-5-carbonyl)amino]-2-methoxymethylpentanoic Acid] are not above 1 nM and more than 10%.
The corresponding values for `CCOC(=O)[C@H](N)C[C@@H](Cc1ccc(-c2cc(Cl)ccc2F)cc1)NC(=O)c1cc(C(C)=O)n[nH]1` [Example 16-10, (2R,4R)-4-[(5-Acetyl-2H-pyrazole-3-carbonyl)amino]-2-amino-5-(5′-chloro-2′-fluoro-biphenyl-4-yl)pentanoic acid ethyl ester] are 10 to 31.6 nM and more than 10%.
With `CCOc1cc(C(=O)N[C@H](Cc2ccc(-c3cc(Cl)ccc3F)cc2)C[C@@H](COC)C(=O)O)n[nH]1` [Example 2-16, (2S,4S)-5-(5′-Chloro-2′-fluorobiphenyl-4-yl)-4-[(5-ethoxy-1H-pyrazole-3-carbonyl)amino]-2-methoxymethylpentanoic acid], in data set [1], the pKi entry is “≧9.0”. This compound also came in with a bioavailability in data set [2] of more than 10%.
Consider `CCOC(=O)[C@H](N)C[C@@H](Cc1ccc(-c2cc(Cl)ccc2F)cc1)NC(=O)c1cnn[nH]1` [Example 14a, (2R,4R)-2-Amino-5-(5′-chloro-2′-fluorobiphenyl-4-yl)-4-[(3H-[1,2,3]triazole-4-carbonyl)amino]pentanoic Acid Ethyl Ester], for which the inhibition constant Ki in data set [1] was 10 to 31.6 nM. For the same compound, the bioavailability in data set [2] is more than 10%.
As to `COC[C@H](C[C@@H](Cc1ccc(-c2cc(Cl)ccc2F)cc1)NC(=O)c1ncccn1)C(=O)O` [Example 2-13, (2S,4S)-5-(5′-Chloro-2′-fluorobiphenyl-4-yl)-2-methoxymethyl-4-[(pyrimidine-2-carbonyl)amino]pentanoic acid], in data set [1], the pKi result is “≧9.0”. For the same compound, the bioavailability in data set [2] is more than 10%.
For `Cc1ccccc1-c1n[nH]c(C(=O)N[C@H](Cc2ccc(-c3cc(Cl)ccc3F)cc2)C[C@@H](N)C(=O)O)c1F` [Example 16-23, (2R,4R)-2-Amino-5-(5′-chloro-2′-fluorobiphenyl-4-yl)-4-[(4-fluoro-5-o-tolyl-2H-pyrazole-3-carbonyl)amino]pentanoic acid] the same measures were “≧9.0” and more than 10%.
For `CCOC(=O)[C@H](N)C[C@@H](Cc1ccc(-c2cc(Cl)ccc2F)cc1)NC(=O)c1coc(=O)[nH]1` [Example 16-32, (2R,4R)-2-Amino-5-(5′-chloro-2′-fluorobiphenyl-4-yl)-4-[(2-oxo-2,3-dihydro-oxazole-4-carbonyl)amino]pentanoic acid ethyl ester], the bioavailability in data set [2] was more than 10%.
On the same count and under the same terms, with `CCOC(=O)[C@@H](C[C@@H](Cc1ccc(-c2cc(Cl)ccc2F)cc1)NC(=O)c1cnn[nH]1)CN1CCC1` [Example 84a, (2S,4S)-2-Azetidin-1-ylmethyl-5-(5′-chloro-2′-fluorobiphenyl-4-yl)-4-[(3H-[1,2,3]triazole-4-carbonyl)amino]pentanoic Acid Ethyl Ester] the figure was more than 10%; with `CCOC(=O)[C@@H](C[C@@H](Cc1ccc(-c2cc(Cl)ccc2F)cc1)NC(=O)c1cnn[nH]1)CN1CC(F)C1` [Example 91a, (2S,4S)-5-(5′-Chloro-2′-fluorobiphenyl-4-yl)-2-(3-fluoroazetidin-1-ylmethyl)-4-[(3H-[1,2,3]triazole-4-carbonyl)amino]pentanoic Acid Ethyl Ester], more than 10%; with `CCOC(=O)[C@@H](C[C@@H](Cc1ccc(-c2cc(Cl)ccc2F)cc1)NC(=O)c1cnn[nH]1)CN1CCOCC1` [Example 69b, (2S,4S)-5-(5′-Chloro-2′-fluorobiphenyl-4-yl)-2-morpholin-4-ylmethyl-4-[(3H-[1,2,3]triazole-4-carbonyl)amino]pentanoic Acid Ethyl Ester], more than 10%.
